The text below walks through data of PubChem BioAssay (NCI).

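48-hour exposure; five concentrations; linearly interpolated endpoints. Definition used: TGI = concentration required for complete inhibition of growth.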 Where a SMILES comes first, the peptide text is derived from it. The star is where a group is joined. Boc = CC(C)(C)OC(=O)*; OBn = c1ccc(CO*)cc1; Bn = c1ccc(C*)cc1 A value given as a limit tells only on which side of the number the result lay.

Some test systems named below: A549 NSCLC; MDA-MB-231 breast; HT29 colon; HOP-62 NSCLC; U251 CNS; K-562 leukemia; HCT-116 colon; MDA-MB-435; HS 578T breast; PC-3 prostate; A498 renal; SK-OV-3 ovarian; SF-539 CNS.
What all share (assay): NCI anticancer screen, dose series, 48 h

For the molecule `CC(C)=NN/C(=N\S(=O)(=O)c1cc(Cl)c(Oc2ccc([N+](=O)[O-])cc2Cl)c(Cl)c1)Nc1ccc(Cl)cc1`, the TGI in the assay with A549 NSCLC, with MDA-MB-231 breast, with HT29 colon, in the assay on HOP-62 NSCLC, with U251 CNS and in the assay on K-562 leukemia was > 100 µM throughout. The TGI in the assay on HCT-116 colon, with MDA-MB-435, with HS 578T breast and in the assay on PC-3 prostate was > 100 µM in each case.
As for `C(=N\NC1=NCCCN1)/c1ccc(-c2cn3cc(/C=N/NC4=NCCCN4)ccc3n2)cc1`, the TGI in the assay with A549 NSCLC was > 100 µM; in the assay with MDA-MB-231 breast it was > 100 µM; with HT29 colon, > 71.7 µM; with HOP-62 NSCLC it was > 100 µM; in the assay with U251 CNS, > 100 µM; in the assay on A498 renal it was > 78.5 µM. The TGI with K-562 leukemia was > 84.3 µM; in the assay on HCT-116 colon it was > 100 µM; with MDA-MB-435, > 100 µM; in the assay with SK-OV-3 ovarian, > 100 µM; in the assay with SF-539 CNS it was > 100 µM; with PC-3 prostate, > 57.3 µM.
For `Cc1c(Cl)cccc1NC(=O)C(=O)C1C(=O)NC(=O)NC1=O`, the TGI in the assay with A549 NSCLC, with HT29 colon, in the assay with HOP-62 NSCLC, with U251 CNS, in the assay with A498 renal and in the assay with K-562 leukemia was > 100 µM throughout. Moreover, the TGI with HCT-116 colon, in the assay on SK-OV-3 ovarian and in the assay on SF-539 CNS was > 100 µM each time.
Turning to `CC(C)(C)[Si](C)(C)OCC1OC(n2ccc(=O)[nH]c2=O)C(O[Si](C)(C)C(C)(C)C)/C1=N/O` (stereo not drawn), the TGI with A549 NSCLC came to 14 µM; with MDA-MB-231 breast, 54.6 µM; with HT29 colon it was 9.82 µM; with HOP-62 NSCLC it was 17 µM; in the assay with U251 CNS, 23.4 µM; in the assay with A498 renal, 16.5 µM. Also, the TGI worked out at 15.7 µM in the assay with K-562 leukemia; 7.11 µM in the assay with HCT-116 colon; 9.95 µM in the assay with MDA-MB-435; 26 µM in the assay with SK-OV-3 ovarian; 10.9 µM in the assay with SF-539 CNS; 13.7 µM in the assay on PC-3 prostate.
Regarding `Cc1cccc(Nc2cn(CCOc3ccccc3)c(=O)[nH]c2=O)c1`, the TGI was 61.9 µM with A549 NSCLC; > 100 µM in the assay with HOP-62 NSCLC; > 100 µM in the assay with U251 CNS; > 100 µM with A498 renal; > 100 µM in the assay on K-562 leukemia; > 100 µM in the assay with HCT-116 colon. Moreover, the TGI in the assay with MDA-MB-435 is > 100 µM; with HS 578T breast, > 100 µM; with PC-3 prostate, 72.3 µM.
As for `CC(=O)OC(C)(C)C1CCC(C)(C(O)COc2ccc(CCNC(=O)c3ccccc3)cc2)O1` (stereo not drawn), the TGI in the assay on A549 NSCLC, in the assay on HT29 colon, in the assay with HOP-62 NSCLC, with U251 CNS, in the assay on HCT-116 colon and in the assay with SK-OV-3 ovarian was > 100 µM in each case. Besides, the TGI with SF-539 CNS is > 100 µM.
As for `CC(=O)OC1COC(N2C(=O)C(=O)c3cc(Br)c([N+](=O)[O-])cc32)C(OC(C)=O)C1OC(C)=O` (stereo not drawn), the TGI in the assay with A549 NSCLC is > 100 µM; in the assay with HT29 colon it was > 100 µM; with HOP-62 NSCLC, > 100 µM; in the assay with U251 CNS, > 100 µM; in the assay with K-562 leukemia, 72.4 µM; with HCT-116 colon, > 100 µM. Also, the TGI in the assay with SK-OV-3 ovarian and in the assay on SF-539 CNS was > 100 µM in each case.
For `C[C@H](NC(=O)OC1C2C=CC(O)C1CC2)c1ccccc1` (stereo partly drawn), the TGI with A549 NSCLC, in the assay with HOP-62 NSCLC, in the assay with U251 CNS, with A498 renal, in the assay on K-562 leukemia and in the assay on HCT-116 colon was > 100 µM in each case. For the same molecule, the TGI in the assay with SK-OV-3 ovarian and with SF-539 CNS was > 100 µM each time.
As for `NS(=O)(=O)c1ccc(CNC(=S)NC(=O)Nc2ccc(Cl)c(Cl)c2)cc1`, the TGI in the assay on A549 NSCLC was found to be 65.5 µM; with MDA-MB-231 breast, 25.5 µM; in the assay on HT29 colon, 61.1 µM; in the assay on HOP-62 NSCLC, 38.3 µM; in the assay on U251 CNS, 26.7 µM; in the assay with A498 renal, 33.5 µM. The TGI in the assay on K-562 leukemia is 39.5 µM; with HCT-116 colon, 32.6 µM; with SK-OV-3 ovarian it was 52.8 µM; in the assay on HS 578T breast, 38.1 µM; in the assay with SF-539 CNS it was 41.5 µM; in the assay on PC-3 prostate, 25.2 µM.
As to `C=C1C(=O)OC2C(C)C3C=CC(=O)[C@@]3(C)C(OC(=O)/C(C)=C/C)C1[C@@H]2OC(C)=O` (stereo partly drawn), the TGI in the assay with A549 NSCLC was 3.8 µM; in the assay with MDA-MB-231 breast, 0.678 µM; with HT29 colon, 1.18 µM; in the assay with HOP-62 NSCLC it was 2.86 µM; in the assay with U251 CNS it was 2.36 µM; in the assay with A498 renal, 2.81 µM. The TGI with K-562 leukemia turned out to be 16 µM; in the assay on HCT-116 colon, 0.769 µM; in the assay on MDA-MB-435 it was 0.86 µM; with SK-OV-3 ovarian, 3.52 µM; in the assay on SF-539 CNS, 0.987 µM; with PC-3 prostate it was 1.87 µM.
Consider `CC(C)CC(NC(=O)C(Cc1ccccc1)NC(=O)C(COCc1ccccc1)NC(=O)OC(C)(C)C)C(=O)OCc1ccccc1` (stereo not drawn) (Boc-Ser(Bn)-Phe-Leu-OBn; configuration not given here), for which the TGI in the assay with MDA-MB-231 breast is 93 µM; with HT29 colon it was 43.9 µM; in the assay with HOP-62 NSCLC, > 100 µM; with U251 CNS, 53.2 µM; in the assay on A498 renal it was > 100 µM; in the assay with K-562 leukemia, 45.2 µM. The TGI in the assay with HCT-116 colon was 32.9 µM; with SK-OV-3 ovarian it was > 100 µM; in the assay on SF-539 CNS it was 72.3 µM; in the assay with PC-3 prostate, 57.6 µM.
For `CC1(C)COC(c2cccc(C3=NC(C)(C)CO3)c2)=N1`, the TGI with A549 NSCLC, in the assay with MDA-MB-231 breast, in the assay with HT29 colon, in the assay with HOP-62 NSCLC, in the assay with U251 CNS and in the assay on K-562 leukemia was > 100 µM in each case. In addition, the TGI in the assay on HCT-116 colon, with MDA-MB-435, in the assay on SF-539 CNS and in the assay on PC-3 prostate was > 100 µM throughout.
As to `OC(Cn1cncn1)(Cn1cncn1)c1ccc(Cl)cc1Cl`, the TGI with A549 NSCLC, in the assay on HT29 colon, in the assay with HOP-62 NSCLC, in the assay on U251 CNS, in the assay with A498 renal and with K-562 leukemia was > 100 µM each time. The TGI in the assay with HCT-116 colon, in the assay with SK-OV-3 ovarian and in the assay with SF-539 CNS was > 100 µM each time.
